The values below come from patent US9376425B2, “Heterocyclic compounds as MDM2 inhibitors for the treatment of cancer” (AMGEN INC., priority 2011, dated 2016).

Broadly, the IC50 is the point on the concentration scale where inhibition reaches its midpoint.

T1 sequence (Q00987 1-188): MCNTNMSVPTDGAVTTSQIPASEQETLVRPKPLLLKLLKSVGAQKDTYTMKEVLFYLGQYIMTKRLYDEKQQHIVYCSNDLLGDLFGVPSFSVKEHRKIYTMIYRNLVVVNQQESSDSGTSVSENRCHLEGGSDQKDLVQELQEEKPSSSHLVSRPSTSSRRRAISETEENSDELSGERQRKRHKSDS

This test addresses T1, human MDM2 (GST-hMDM2 aa 1-188), interaction with biotinylated-p53 (aa 1-83) (Homo sapiens, UniProt Q00987).
T1 construct: Amino acid residues 1-188 of human MDM2 were expressed; made in house; host or cells: Escherichia coli
Description: Homogenous Time-Resolved Fluorescence Assay (HTRF1 assay), inhibition of HDM2-p53 interaction. The settings on record: 2.5 nM GST-hMDM2, 5 nM biotinylated-p53, 200 mM KF. The format is binding. In a few lines: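 GST-hMDM2 preincubated 20 min at room temperature with serially diluted compound, then biotinylated p53 (aa 1-83, AviTag-TrxA-6xHis fusion) added for 60 min. SA-XLent/anti-GST cryptate detection equilibrated >4 h; final DMSO 2%. Time-resolved fluorescence read; percent inhibition relative to nutlin-3.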
In the case of `CCc1ccc([C@@H]2[C@@H](c3cccc(Cl)c3)O[C@@H](CC(=O)O)C(=O)N2CC2CC2)cc1` [Example 58, 2-((2S,5R,6R)-6-(3-Chlorophenyl)-4-(cyclopropylmethyl)-5-(4-ethylphenyl)-3-oxomorpholin-2-yl)acetic acid], the IC50 came out at 900 nM.

The compound `O=C(O)C[C@@H]1O[C@H](c2cccc(Cl)c2)[C@@H](c2ccc(OC(F)(F)F)cc2)N(CC2CC2)C1=O` [Example 59, 2-((2S,5R,6R)-6-(3-Chlorophenyl)-4-(cyclopropylmethyl)-3-oxo-5-(4-(trifluoromethoxy)phenyl)morpholin-2-yl)acetic acid] gave an IC50 of 700 nM. The compound `Cc1ccc([C@@H]2[C@@H](c3cccc(Cl)c3)O[C@@H](CC(=O)O)C(=O)N2CC2CC2)cc1` [Example 60, 2-((2S,5R,6R)-6-(3-Chlorophenyl)-4-(cyclopropylmethyl)-3-oxo-5-(p-tolyl)morpholin-2-yl)acetic acid] had an IC50 of 700 nM. For `Cc1ccc([C@@H]2[C@@H](c3cccc(Cl)c3)O[C@H](CC(=O)O)C(=O)N2CC2CC2)cc1` [Example 61, 2-((2R,5R,6R)-6-(3-Chlorophenyl)-4-(cyclopropylmethyl)-3-oxo-5-(p-tolyl)morpholin-2-yl)acetic acid] the value was 600 nM; for `O=C(O)C[C@H]1O[C@H](c2cccc(Cl)c2)[C@@H](c2ccccc2)N(CC2CC2)C1=O` [Example 63, 2-((2R,5R,6R)-6-(3-Chlorophenyl)-4-(cyclopropylmethyl)-3-oxo-5-phenylmorpholin-2-yl)acetic acid], 9100 nM. On to `O=C(O)C[C@H]1O[C@H](c2cccc(Cl)c2)[C@@H](c2ccc(F)cc2)N(CC2CC2)C1=O` [Example 64, 2-((2R,5R,6R)-6-(3-Chlorophenyl)-4-(cyclopropylmethyl)-5-(4-fluorophenyl)-3-oxomorpholin-2-yl)acetic acid], for which half-maximal inhibition (IC50) was put at 1500 nM. In turn, `O=C(O)C[C@H]1O[C@H](c2cccc(Cl)c2)[C@@H](c2ccc(OC(F)(F)F)cc2)N(CC2CC2)C1=O` [Example 65, 2-((2R,5R,6R)-6-(3-Chlorophenyl)-4-(cyclopropylmethyl)-3-oxo-5-(4-(trifluoromethoxy)phenyl)morpholin-2-yl)acetic acid] yielded an IC50 of 1100 nM.

`CC(C)c1ccc([C@@H]2[C@@H](c3cccc(Cl)c3)O[C@H](CC(=O)O)C(=O)N2CC2CC2)cc1` [Example 66, 2-((2R,5R,6R)-6-(3-Chlorophenyl)-4-(cyclopropylmethyl)-5-(4-isopropylphenyl)-3-oxomorpholin-2-yl)acetic acid]: the IC50 is 13500 nM.
